Results reported in patent publication US11793880B2, “Conjugates of quaternized tubulysin compounds” (Seagen Inc., priority 2015, dated 2023).

Legend:
Type in all cases: cell-based
Karpas299, ALCL = assay: In vitro assays - tubulysin free drugs, CellTiter-Glo growth inhibition; details: Homo sapiens, KARPAS-299, 96 h, free drug
Experimental: (§1) In vitro assays. Cells cultured in log-phase growth were seeded for 24 h in 96-well plates containing 150 μL RPMI 1640 supplemented with 20% FBS. Serial dilutions of antibody-drug conjugates in cell culture media were prepared at 4× working concentrations; 50 μL of each dilution was added to the 96-well plates. Following addition of ADC, cells were incubated with test articles for 4 d at 37° C. After 96 h, growth inhibition was assessed by CellTiter-Glo® (Promega, Madison, WI) and luminescence was measured on a plate reader. The IC50 value, determined in triplicate, is defined here as the concentration that results in a 50% reduction in cell growth relative to untreated controls.
(§2) In vitro assays—tubulysin free drugs. Cells were treated for 96 hours with tubulysin ether analogs (40-42) or tubulysin M (7), then assessed for viability as described in the methods.
(§3) The tubulysin ester analogs (133-137) and unsaturated ether analogs (176-179) were tested in vitro for potency relative to tubulysin M (7), following a 96 hour exposure. As shown by IC50 values (nM) of Table 2, Tubulysin esters 133-136 performed comparably to tubulysin M, with similar potencies across of the cell lines.

L428, MDR + HL = assay: as above; details: Homo sapiens, L-428, 96 h, free drug
Experimental: as §1, §2, §3

HL60, AML = assay: as above; details: Homo sapiens, HL-60, 96 h
Experimental: as §1, §2, §3
(§4) A series of analogues of the ethyl ether tubulysin compound TubOEt (41) were synthesized on solid phase lanterns that maintain the ethyl ether substitution, while either varying the residue at the Ile position (203-215) or the Mep position (216-221). Following cleavage from the solid phase, the analogues were obtained in >85% purity and tested without further purification. The compounds were tested in vitro for potency relative to a sample of TubOEt synthesized in parallel on a lantern (41-lantern), following a 96 hour exposure, with IC5O values expressed in nM (Table 3). While in many cases an attenuation in activity was observed relative to 41-lantern, some well-tolerated substitutions were found. […] While this stereochemical preference is not observed when Ile is replaced with O-methyl threonine (207) or O-methyl allothreonine (206), bulkier substituents led to a greater differentiation. […] Replacement of the Mep residue was generally less-well tolerated.

HL60/RV, MDR + AML = assay: as above; details: Homo sapiens, HL-60, 96 h
Experimental: as §1, §2, §3, §4

L540cy, HL = assay: as above; details: L540cy, 96 h
Experimental: as §1, §2, §3, §4

[1] = tested on: Karpas299, L540cy, L428, HL60, HL60/RV cell lines; assay: In vitro assays - tubulysin free drugs, statements across the cell line panel; details: for potency relative to tubulysin M (7), in words: Table 2 cell lines, 96 hour exposure
Experimental: as §1, §2
The ethyl ether and tubulysin M maintained the highest level of potency in the context of MDR+L428 and HL60/RV cell lines.
as §3

HepG2, HCC = assay: In vitro assays - TubOEt analogues, CellTiter-Glo growth inhibition; details: Homo sapiens, Table 3, lantern-made analogues >85% purity, 96 hour exposure
Experimental: as §1, §4

Ramos, NHL = assay: as above; details: Homo sapiens, Table 3, lantern-made analogues >85% purity, 96 hour exposure
Experimental: as §1, §4

U266 MM = assay: as above; details: Homo sapiens, U-266; Table 3; lantern-made analogues >85% purity, 96 hour exposure
Experimental: as §1, §4

[2] = tested on: HepG2, L540cy, Ramos, U266, HL60, HL60/RV cell lines; assay: In vitro assays - TubOEt analogues, statements across the cell line panel; details: Table 3 cell lines, 96 hour exposure
Experimental: as §1, §4

[3] = Table 2, free drug, 96 hour exposure
[4] = Table 3, lantern-made analogues >85% purity, 96 hour exposure
[5] = Table 1 (examples), free drug, 96 hours

Structure (SMILES) | IC50 (Karpas299, ALCL; Table 2, 96 hour exposure) | IC50 (L428, MDR + HL; Table 2, 96 hour exposure) | IC50 (HL60, AML; [3]) | IC50 (HL60/RV, MDR + AML; [3]) | IC50 (L540cy, HL; [3]) | potency relative to tubulysin M (7), in words [1] | IC50 (HL60, AML; [4]) | IC50 (HL60/RV, MDR + AML; [4]) | IC50 (L540cy, HL; [4]) | IC50 (HepG2, HCC) | IC50 (Ramos, NHL) | IC50 (U266 MM) | potency / cytotoxicity of TubOEt analogues, in words [2] | further results
CC[C@H](C)[C@H](NC(=O)[C@H]1CCCCN1C)C(=O)N(C)[C@H](C[C@@H](OCc1ccccc1)c1nc(C(=O)N[C@@H](Cc2ccccc2)C[C@H](C)C(=O)O)cs1)C(C)C [Compound 179, (2S,4R)-4-(2-((1R,3R)-1-(benzyloxy)-3-((2S,3S)—N,3-dimethyl-2-((R)-1-methylpiperidine-2-carboxamido)pentanamido)-4-methylpentyl)thiazole-4-carboxamido)-2-methyl-5-phenylpentanoic acid] | 0.08 nM | 0.57 nM | 0.4 nM | 24 nM | 0.4 nM | attenuated in potency | – | – | – | – | – | – | – | –
C=C(C)CO[C@H](C[C@H](C(C)C)N(C)C(=O)[C@@H](NC(=O)[C@H]1CCCCN1C)[C@@H](C)CC)c1nc(C(=O)N[C@@H](Cc2ccccc2)C[C@H](C)C(=O)O)cs1 [Compound 176, (2S,4R)-4-(2-((1R,3R)-3-((2S,3S)—N,3-dimethyl-2-((R)-1-methylpiperidine-2-carboxamido)pentanamido)-4-methyl-1-((2-methylallyl)oxy)pentyl)thiazole-4-carboxamido)-2-methyl-5-phenylpentanoic acid] | 0.12 nM | 0.12 nM | 0.07 nM | 6 nM | 0.06 nM | comparable potency | – | – | – | – | – | – | – | –
CCO[C@H](C[C@H](C(C)C)N(C)C(=O)[C@@H](NC(=O)[C@H]1CCCCN1C)[C@@H](C)OC(C)(C)C)c1nc(C(=O)N[C@@H](Cc2ccccc2)C[C@H](C)C(=O)O)cs1 [Compound 215, (2S,4R)-4-(2-((1R,3R)-3-((2S,3R)-3-(tert-butoxy)-N-methyl-2-((R)-1-methylpiperidine-2-carboxamido)butanamido)-1-ethoxy-4-methylpentyl)thiazole-4-carboxamido)-2-methyl-5-phenylpentanoic acid] | – | – | – | – | – | – | 1 nM | 33 nM | 0.2 nM | 1 nM | 0.2 nM | 0.1 nM | significantly more potent | –
CCO[C@H](C[C@H](C(C)C)N(C)C(=O)[C@@H](NC(=O)[C@H]1CCCCN1C)C1CCCCC1)c1nc(C(=O)N[C@@H](Cc2ccccc2)C[C@H](C)C(=O)O)cs1 [Compound 205, (2S,4R)-4-(2-((1R,3R)-3-((S)-2-cyclohexyl-N-methyl-2-((R)-1-methylpiperidine-2-carboxamido)acetamido)-1-ethoxy-4-methylpentyl)thiazole-4-carboxamido)-2-methyl-5-phenylpentanoic acid] | – | – | – | – | – | – | 2 nM | 177 nM | 1 nM | 7 nM | 0.5 nM | 0.5 nM | potent | –
CCO[C@H](C[C@H](C(C)C)N(C)C(=O)[C@@H](NC(=O)[C@H]1[C@@H]2CC[C@@H](C2)N1C)[C@@H](C)CC)c1nc(C(=O)N[C@@H](Cc2ccccc2)C[C@H](C)C(=O)O)cs1 [Compound 219, (2S,4R)-4-(2-((1R,3R)-3-((2S,3S)—N,3-dimethyl-2-((1S,3R,4R)-2-methyl-2-azabicyclo[2.2.1]heptane-3-carboxamido)pentanamido)-1-ethoxy-4-methylpentyl)-thiazole-4-carboxamido)-2-methyl-5-phenylpentanoic acid] | – | – | – | – | – | – | 25 nM | > 1000 nM | 6 nM | 19 nM | 8 nM | 8 nM | decrease in the observed cytotoxicity | –
C=CCO[C@H](C[C@H](C(C)C)N(C)C(=O)[C@@H](NC(=O)[C@H]1CCCCN1C)[C@@H](C)CC)c1nc(C(=O)N[C@@H](Cc2ccccc2)C[C@H](C)C(=O)O)cs1 [Compound 177, (2S,4R)-4-(2-((1R,3R)-1-(allyloxy)-3-((2S,3S)—N,3-dimethyl-2-((R)-1-methylpiperidine-2-carboxamido)pentanamido)-4-methylpentyl)thiazole-4-carboxamido)-2-methyl-5-phenylpentanoic acid] | 0.02 nM | 0.15 nM | 0.1 nM | 9 nM | 0.12 nM | comparable potency | – | – | – | – | – | – | – | –
CCO[C@H](C[C@H](C(C)C)N(C)C(=O)[C@@H](NC(=O)[C@H]1CCCCN1C)[C@@H](C)CC)c1nc(C(=O)N[C@@H](Cc2ccccc2)C[C@H](C)C(=O)O)cs1 [Compound 41, (2S,4R)-4-(2-((1R,3R)-3-((2S,3S)—N,3-dimethyl-2-((R)-1-methylpiperidine-2-carboxamido)pentanamido)-1-ethoxy-4-methylpentyl)thiazole-4-carboxamido)-2-methyl-5-phenylpentanoic acid] | – | – | – | – | – | – | – | – | – | – | – | – | – | IC50 (Karpas299, ALCL; Table 1 (examples), 96 hours): 0.05 nM; IC50 (L428, MDR + HL; Table 1 (examples), 96 hours): 0.14 nM; IC50 (HL60, AML; [5]): 0.05 nM; IC50 (HL60/RV, MDR + AML; [5]): 5 nM; IC50 (L540cy, HL; Table 1 (examples), free drug): 0.05 nM; potency on each of the cell lines, in words ([1]; Table 1 (examples) cell lines, 96 hours): trended more potent
CCO[C@H](C[C@H](C(C)C)N(C)C(=O)[C@@H](NC(=O)[C@H]1CCCCN1C)C1CCCC1)c1nc(C(=O)N[C@@H](Cc2ccccc2)C[C@H](C)C(=O)O)cs1 [Compound 204, (2S,4R)-4-(2-((1R,3R)-3-((S)-2-cyclopentyl-N-methyl-2-((R)-1-methylpiperidine-2-carboxamido)acetamido)-1-ethoxy-4-methylpentyl)thiazole-4-carboxamido)-2-methyl-5-phenylpentanoic acid] | – | – | – | – | – | – | 1 nM | 40 nM | 0.4 nM | 2 nM | 0.2 nM | 0.1 nM | potent | –
CC[C@H](C)[C@H](NC(=O)[C@H]1CCCCN1C)C(=O)N(C)[C@H](C[C@@H](OC(=O)CC(C)(C)C)c1nc(C(=O)N[C@@H](Cc2ccccc2)C[C@H](C)C(=O)O)cs1)C(C)C [Compound 137, (2S,4R)-4-(2-((1R,3R)-3-((2S,3S)—N,3-dimethyl-2-((R)-1-methylpiperidine-2-carboxamido)pentanamido)-1-((3,3-dimethylbutanoyl)oxy)-4-methylpentyl)thiazole-4-carboxamido)-2-methyl-5-phenylpentanoic acid] | 0.18 nM | 0.93 nM | 0.7 nM | 47 nM | 0.7 nM | reduced potency | – | – | – | – | – | – | – | –
CCO[C@H](C[C@H](C(C)C)N(C)C(=O)[C@@H](NC(=O)C1CCC(F)(F)CN1C)[C@@H](C)CC)c1nc(C(=O)N[C@@H](Cc2ccccc2)C[C@H](C)C(=O)O)cs1 (stereo partly drawn) [Compound 216, (2S,4R)-4-(2-((1R,3R)-3-((2S,3S)-2-(5,5-difluoro-1-methylpiperidine-2-carboxamido)-N,3-dimethylpentanamido)-1-ethoxy-4-methylpentyl)thiazole-4-carboxamido)-2-methyl-5-phenylpentanoic acid] | – | – | – | – | – | – | 61 nM | > 1000 nM | 12 nM | 58 nM | 10 nM | 9 nM | decrease in the observed cytotoxicity | –
